Earlier results in US8697115B2, “Method of improving antioxidant status of an infant” (Abbott Laboratories, priority 2002, dated 2014).

Assays:
[1] = α-tocopherol equivalents; from Vitamin E in Health and Disease, 1993
[2] = Food Chemicals Codex effective Jul. 1, 1996
[3] = adults
[4] = capsule with both forms for 5 days prior to giving birth

SMILES	Activity as α-TE (mg/mg compound) [1] [mg/mg compound]	Activity (IU/mg) [2] [IU/mg]	further results
Cc1cc(O)c(C)c2c1O[C@](C)(CCC[C@H](C)CCC[C@H](C)CCCC(C)C)CC2 [RRR-β-tocopherol]	0.5		
CC(C)=CCC/C(C)=C/CC/C(C)=C/CC[C@]1(C)CCc2c(C)c(O)c(C)c(C)c2O1 [RRR-α-tocotrienol]	0.3		
CC(=O)Oc1c(C)c(C)c2c(c1C)CCC(C)(CCCC(C)CCCC(C)CCCC(C)C)O2 (stereo not drawn) [d,l-α-tocopherol acetate]	0.74	1.0	
CC(=O)Oc1c(C)c(C)c2c(c1C)CC[C@@](C)(CCC[C@H](C)CCC[C@H](C)CCCC(C)C)O2 [d-α-tocopherol acetate]		1.36	preferential utilization compared to all-rac-α-tocopheryl acetate ([3]; in words): about twice
Cc1c(C)c2c(c(C)c1O)CC[C@@](C)(CCC[C@H](C)CCC[C@H](C)CCCC(C)C)O2 [RRR-α-tocopherol, 2R,4′R,8′R-α-tocopherol]	1.0	1.49	amount in placental cord blood relative to synthetic vitamin E [4]: ~3.5 times; concentration in the mother's own blood at delivery relative to synthetic vitamin E ([4]; in words): nearly twice; enrichment in VLDL secreted by the liver over all-rac-α-tocopherol [3]: 4 fold
Cc1c(O)cc2c(c1C)O[C@](C)(CCC[C@H](C)CCC[C@H](C)CCCC(C)C)CC2 [RRR-γ-tocopherol]	0.1		
Cc1c(C)c2c(c(C)c1OC(=O)CCC(=O)O)CCC(C)(CCCC(C)CCCC(C)CCCC(C)C)O2 (stereo not drawn) [d,l-α-tocopherol acid succinate]		0.89	
Cc1cc(O)cc2c1O[C@](C)(CCC[C@H](C)CCC[C@H](C)CCCC(C)C)CC2 [RRR-δ-tocopherol]	0.03		
CC(C)=CCC/C(C)=C/CC/C(C)=C/CC[C@]1(C)CCc2c(C)c(O)cc(C)c2O1 [RRR-β-tocotrienol]	0.05		
Cc1c(C)c2c(c(C)c1O)CCC(C)(CCCC(C)CCCC(C)CCCC(C)C)O2 (racemic) [d,l-α-tocopherol, 2DL,4′DL,8′DL-α-tocopherol]		1.1	
Cc1c(C)c2c(c(C)c1OC(=O)CCC(=O)O)CC[C@@](C)(CCC[C@H](C)CCC[C@H](C)CCCC(C)C)O2 [d-α-tocopherol acid succinate]		1.21	
